Measured values: paper PMC6934184, “Selective DNA-PKcs inhibition extends the therapeutic index of localized radiotherapy and chemotherapy” (The Journal of Clinical Investigation, 2019)

Target: T1, CAMK2A (CaMKII alpha) (Homo sapiens, UniProt Q9UQM7)
T1 construct: purchased Thermo Fisher Scientific (Life Technologies) SelectScreen
Experiment: SelectScreen Z'LYTE
Format: biochemical
Procedure, shortened: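 SelectScreen broad panel; activity (Z'LYTE, Adapta) plus binding formats. ATP: Km app for CSF1R Z'LYTE; 10 for CAMK1 Adapta. Readout = % per kinase.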

T1 sequence (Q9UQM7 whole entry): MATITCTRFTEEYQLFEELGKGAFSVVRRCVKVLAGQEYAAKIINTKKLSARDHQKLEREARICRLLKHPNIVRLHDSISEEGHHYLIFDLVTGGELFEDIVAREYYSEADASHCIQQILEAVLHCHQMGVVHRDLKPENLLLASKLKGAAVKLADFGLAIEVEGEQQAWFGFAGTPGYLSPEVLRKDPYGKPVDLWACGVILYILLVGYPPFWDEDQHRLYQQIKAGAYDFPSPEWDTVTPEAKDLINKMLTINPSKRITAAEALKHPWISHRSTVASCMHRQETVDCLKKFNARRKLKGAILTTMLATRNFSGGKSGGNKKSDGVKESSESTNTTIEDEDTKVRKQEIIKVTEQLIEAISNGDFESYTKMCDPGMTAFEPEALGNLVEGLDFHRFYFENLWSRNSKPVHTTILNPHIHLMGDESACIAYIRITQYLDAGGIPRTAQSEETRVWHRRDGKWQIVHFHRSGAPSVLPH

In the case of `CN(C(=O)CN1CCOCC1)c1ccc2sc3c(-c4cccc5c(=O)cc(N6CC7CCC(C6)O7)oc45)cccc3c2c1` [NU5455], the inhibition at 1 µM is reported as -0.6%.
